Consider 15 molecules from US12612380B2, “Non-lysosomal glucosylceramidase inhibitors and uses thereof” (ALECTOS THERAPEUTICS INC., priority 2019, dated 2026).

By IC50 is commonly meant the concentration that gives 50% inhibition.

The target in one test is T1, GBA2 (Homo sapiens, UniProt Q9HCG7).
T1 sequence (Q9HCG7 1-927): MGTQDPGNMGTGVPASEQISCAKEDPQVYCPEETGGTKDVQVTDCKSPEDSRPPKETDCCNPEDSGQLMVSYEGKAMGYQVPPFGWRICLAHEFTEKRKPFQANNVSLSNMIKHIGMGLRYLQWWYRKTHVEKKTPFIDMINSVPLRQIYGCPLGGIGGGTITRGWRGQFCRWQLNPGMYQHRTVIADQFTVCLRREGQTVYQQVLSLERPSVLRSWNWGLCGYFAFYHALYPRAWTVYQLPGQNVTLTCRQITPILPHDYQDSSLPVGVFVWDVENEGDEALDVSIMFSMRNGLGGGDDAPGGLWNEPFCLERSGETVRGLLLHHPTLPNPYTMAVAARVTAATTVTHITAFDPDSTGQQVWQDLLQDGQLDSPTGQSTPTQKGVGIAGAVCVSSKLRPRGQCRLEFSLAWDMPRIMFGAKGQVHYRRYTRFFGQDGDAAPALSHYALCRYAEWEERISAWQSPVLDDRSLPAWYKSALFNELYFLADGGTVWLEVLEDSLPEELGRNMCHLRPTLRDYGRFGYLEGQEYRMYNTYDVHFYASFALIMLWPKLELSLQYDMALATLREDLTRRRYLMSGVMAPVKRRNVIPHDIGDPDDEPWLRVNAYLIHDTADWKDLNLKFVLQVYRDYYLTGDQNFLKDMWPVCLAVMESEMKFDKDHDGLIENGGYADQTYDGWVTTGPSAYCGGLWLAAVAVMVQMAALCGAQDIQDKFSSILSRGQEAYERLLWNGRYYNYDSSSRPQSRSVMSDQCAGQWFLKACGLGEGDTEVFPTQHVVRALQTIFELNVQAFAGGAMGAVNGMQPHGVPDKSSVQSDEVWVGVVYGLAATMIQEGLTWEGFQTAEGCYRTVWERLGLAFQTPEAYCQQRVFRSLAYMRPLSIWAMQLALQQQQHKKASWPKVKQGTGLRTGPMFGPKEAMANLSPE
Nature of the test: Determination of IC50 values for inhibition of GBA2 in cell lysate. It is filed as biochemical. On the set-up: host or cells: HEK293T (lentiviral transduction, puromycin selection); used as cellular homogenate.
Settings: not given
An excerpt:
Assay for Determination of IC50 Values for Inhibition of GBA2 in Cell Lysate
Stable GBA2-expressing HEK293T cells were generated as follows. The PCR-amplified human GBA2 (GBA2 nucleotide accession number BC011363) using the following primers: Sense 5′---CGCAAATGGGCGGTAGGCGTG (SEQ ID NO:2)---3′ and antisense 5′---TAGTCAGCCATGGGGCGGAGA (SEQ ID NO:3)---3′) was cloned into pLenti-GIII-CMV by ABM Inc. The correctness of the construct was verified by sequencing. Lentivirus particles containing GBA2 in the pLenti-GIII-CMV plasmid were prepared using a third Generation Virus Packaging Mix (ABM cat #LV053-G074) in HEK293T cells and supplied as a virus particle suspension. The virus suspension was used for infection of HEK293T cells. Cell populations stably expressing human GBA2 were selected using puromycin for several weeks as determined by activity assays and western blot.
Various concentrations of test compounds were prepared in DMSO and then diluted into buffer consisting of 100 mM citric acid, 200 mM disodium phosphate with 1% v/v C10E6, pH 5.5. Cellular homogenates (0.25 mg/mL) of the stable HEK293T-overexpressing GBA2 cell line were preincubated for 10 min on ice with an inhibitor of GCase (20 μM (6R,7R,8S)-8-ethyl-4-azaspiro[2.5]octane-6,7-diol). The reaction solution consisted of 20 μL of 750 μM 4-methylumbelliferone-β-D glucopyranoside in 5% DMSO in the same buffer, 20 μL of GBA2-cellular homogenate pre-treated with (6R,7R,8S)-8-ethyl-4-azaspiro[2.5]octane-6,7-diol and 20 μL of various concentrations of test compound in 10% DMSO in the same buffer. The final concentrations in the reaction were 0.083 mg/mL GBA2-cellular homogenate, 250 μM 4-methylumbelliferone-β-D glucopyranoside, and various concentrations of inhibitor. The inhibitor and GBA2-cellular homogenate were preincubated together for 5 min at 37° C. The reaction was initiated by addition of substrate and allowed to proceed for 20 min at 37° C. to assess GBA2 activity. Reactions were stopped by the addition of an equal volume (60 μL) of 0.5 M NaOH, 0.3 M glycine, pH 10.5. Fluorescence was measured on a Biotek Synergy H4 plate reader at wavelengths of 365 nm for excitation and 450 nm for emission. Incubations without added enzyme or added inhibitors were used to define no enzyme activity and maximal enzyme activity, respectively. IC50 values were determined by fitting the data to a log[inhibitor concentration] versus response curve using GraphPad Prism. IC50 values were calculated as the concentration of inhibitor required to inhibit GBA2 activity by 50%.
`C[C@@H]1[C@@H](O)[C@H](O)[C@@H](O)CN1CCc1cc(F)ccc1F` [Example 42, (2R,3R,4R,5S)-1-(2,5-difluorophenethyl)-2-methylpiperidine-3,4,5-triol]: the IC50 is less than 0.1 µM. With `CC(C)c1cc(F)c(CCN2C[C@H](O)[C@@H](O)[C@H](O)[C@H]2CF)c(F)c1` [Example 150, (2S,3R,4R,5S)-1-(2,6-difluoro-4-isopropylphenethyl)-2-(fluoromethyl)piperidine-3,4,5-triol], the IC50 is less than 0.1 µM.

Regarding `C[C@@H]1[C@@H](O)[C@H](O)[C@@H](O)CN1CCc1ccccc1F` [Example 38, (2R,3R,4R,5S)-1-(2-fluorophenethyl)-2-methylpiperidine-3,4,5-triol], the half-maximal inhibitory concentration (IC50) lay within 0.1 to 1 µM. Turning to `COc1ccccc1CCN1C[C@H](O)[C@@H](O)[C@H](O)[C@H]1C` [Example 37, (2R,3R,4R,5S)-1-(2-methoxyphenethyl)-2-methylpiperidine-3,4,5-triol], the 50% inhibitory concentration (IC50) lay in the range of 0.1 to 1 µM. Same read-out and setting: for `C[C@@H]1[C@@H](O)[C@H](O)[C@@H](O)CN1CCc1ccc(F)cc1F` [Example 41, (2R,3R,4R,5S)-1-(2,4-difluorophenethyl)-2-methylpiperidine-3,4,5-triol] the value was 0.1 to 1 µM.

The test is the same for the next values; noted with them: cellular homogenate of HEK293T cells overexpressing human GBA2, 250 μM 4-methylumbelliferone-β-D glucopyranoside, pH 5.5, 37° C., GCase inhibitor present; read-out: GBA2 IC50.
On to `CC(C)C(=O)N1CCC(CN2C[C@H](O)[C@@H](O)[C@H](O)[C@H]2C)CC1` [Example 92, 2-methyl-1-(4-(((2R,3R,4R,5S)-3,4,5-trihydroxy-2-methylpiperidin-1-yl)methyl)piperidin-1-yl)propan-1-one], for which the IC50 fell in the range of 1 to 25 µM. Still for that read-out and setting: as for `C[C@@H]1[C@@H](O)[C@H](O)[C@@H](O)CN1C[C@H]1CCN(c2cncc(C(F)(F)F)c2)C1` [Example 125, (2R,3R,4R,5S)-2-methyl-1-(((R)-1-(5-(trifluoromethyl)pyridin-3-yl)pyrrolidin-3-yl)methyl)piperidine-3,4,5-triol], the figure is less than 0.1 µM.

Take `C[C@@H]1[C@@H](O)[C@H](O)[C@@H](O)CN1CC1CCN(C(=O)CC2CCCC2)CC1` [Example 97, 2-cyclopentyl-1-(4-(((2R,3R,4R,5S)-3,4,5-trihydroxy-2-methylpiperidin-1-yl)methyl)piperidin-1-yl)ethanone]: the 50% inhibitory concentration (IC50) was in the range of 0.1 to 1 µM. In the case of `C[C@@H]1[C@@H](O)[C@H](O)[C@@H](O)CN1C[C@H]1CCN(c2cncnc2C(F)(F)F)C1` [Example 127, (2R,3R,4R,5S)-2-methyl-1-(((R)-1-(4-(trifluoromethyl)pyrimidin-5-yl)pyrrolidin-3-yl)methyl)piperidine-3,4,5-triol], the IC50 is less than 0.1 µM. The same measure, in the same setting: as for `C[C@@H]1[C@@H](O)[C@H](O)[C@@H](O)CN1CCCc1ccccc1F` [Example 78, (2R,3R,4R,5S)-1-(3-(2-fluorophenyl)propyl)-2-methylpiperidine-3,4,5-triol], the figure is less than 0.1 µM; as for `C[C@@H]1[C@@H](O)[C@H](O)[C@@H](O)CN1CCc1ccc(Oc2ccccc2)cc1` [Example 64, (2R,3R,4R,5S)-2-methyl-1-(4-phenoxyphenethyl)piperidine-3,4,5-triol], less than 0.1 µM.

`C[C@@H]1[C@@H](O)[C@H](O)[C@@H](O)CN1CC1CCC2(CCCC2)CC1` [Example 25, (2R,3R,4R,5S)-2-methyl-1-(spiro[4.5]decan-8-ylmethyl)piperidine-3,4,5-triol]: the IC50 is less than 0.1 µM. On the same count and under the same terms, for `C[C@@H]1[C@@H](O)[C@H](O)[C@@H](O)CN1CCC1CCN(c2ccccc2)CC1` [Example 89, (2R,3R,4R,5S)-2-methyl-1-(2-(1-phenylpiperidin-4-yl)ethyl)piperidine-3,4,5-triol] the value was less than 0.1 µM; for `C[C@@H]1[C@@H](O)[C@H](O)[C@@H](O)CN1CCCc1ccsc1` [Example 81, (2R,3R,4R,5S)-2-methyl-1-(3-(thiophen-3-yl)propyl)piperidine-3,4,5-triol], less than 0.1 µM; for `C[C@@H]1[C@@H](O)[C@H](O)[C@@H](O)CN1C[C@@H]1CCCN(c2cccc(C(F)(F)F)n2)C1` [Example 143, (2R,3R,4R,5S)-2-methyl-1-(((S)-1-(6-(trifluoromethyl)pyridin-2-yl)piperidin-3-yl)methyl)piperidine-3,4,5-triol], less than 0.1 µM.
